The text below walks through data of paper PMC8773749, “Combinatorial Virtual Screening Revealed a Novel Scaffold for TNKS Inhibition to Combat Colorectal Cancer” (Biomedicines, 2022).

Structures are written as SMILES.

The target of test [1] is T1, TNKS-1 (Homo sapiens, UniProt O95271). The test is described as follows: TNKS-1 histone ribosylation colorimetric assay, single concentration […]. In kind it is biochemical.
Test [2] has as its target T1, TNKS-1. The test is described as follows: TNKS-1 histone ribosylation colorimetric assay (BPS Bioscience kit). The test is classed as biochemical.

T1 sequence (O95271 whole entry): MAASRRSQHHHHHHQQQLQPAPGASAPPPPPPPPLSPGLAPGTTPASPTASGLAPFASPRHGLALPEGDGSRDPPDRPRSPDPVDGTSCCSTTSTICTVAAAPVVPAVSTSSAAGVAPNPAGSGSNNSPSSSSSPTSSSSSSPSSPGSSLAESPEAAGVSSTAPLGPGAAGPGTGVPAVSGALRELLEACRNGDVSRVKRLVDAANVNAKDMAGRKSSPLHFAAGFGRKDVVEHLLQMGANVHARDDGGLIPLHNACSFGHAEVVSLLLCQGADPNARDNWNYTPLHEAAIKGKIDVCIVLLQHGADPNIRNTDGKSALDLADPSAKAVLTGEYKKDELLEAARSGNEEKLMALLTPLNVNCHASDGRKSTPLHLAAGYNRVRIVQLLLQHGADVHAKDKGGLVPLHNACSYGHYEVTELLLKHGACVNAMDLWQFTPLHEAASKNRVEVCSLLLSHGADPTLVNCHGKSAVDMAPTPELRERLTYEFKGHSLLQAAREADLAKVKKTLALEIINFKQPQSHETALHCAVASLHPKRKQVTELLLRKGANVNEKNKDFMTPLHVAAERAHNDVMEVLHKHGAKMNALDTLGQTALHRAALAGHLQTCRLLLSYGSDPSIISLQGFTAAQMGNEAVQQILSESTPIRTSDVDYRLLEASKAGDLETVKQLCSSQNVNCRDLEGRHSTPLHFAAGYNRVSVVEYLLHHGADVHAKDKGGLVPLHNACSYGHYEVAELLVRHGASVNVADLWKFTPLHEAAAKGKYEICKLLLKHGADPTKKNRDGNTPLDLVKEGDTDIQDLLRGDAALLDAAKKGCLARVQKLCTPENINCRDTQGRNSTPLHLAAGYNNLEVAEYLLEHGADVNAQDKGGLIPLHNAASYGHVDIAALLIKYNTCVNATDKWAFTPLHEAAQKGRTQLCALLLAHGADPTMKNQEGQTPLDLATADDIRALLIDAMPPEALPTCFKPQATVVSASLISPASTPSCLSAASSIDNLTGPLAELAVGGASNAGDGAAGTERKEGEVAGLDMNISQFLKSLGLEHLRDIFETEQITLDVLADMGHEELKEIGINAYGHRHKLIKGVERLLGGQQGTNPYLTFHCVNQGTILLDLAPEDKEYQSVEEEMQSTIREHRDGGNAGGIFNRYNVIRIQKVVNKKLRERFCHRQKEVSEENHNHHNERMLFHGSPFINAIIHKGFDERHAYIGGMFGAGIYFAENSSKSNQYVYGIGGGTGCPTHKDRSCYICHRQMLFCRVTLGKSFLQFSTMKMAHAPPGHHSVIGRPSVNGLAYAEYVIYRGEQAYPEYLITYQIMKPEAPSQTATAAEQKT

Regarding `CN(C)c1ccc2c3c(c(=O)oc2c1)CCC3` [NSC315247], the “% of Inhibition at 10 μM / TNKS-1 ^c” value on TNKS-1 [1] was found to be 60.07.

Take `Cc1c(Cl)c2ccc(N(C)C)cc2[nH]c1=O` [NSC319963]: on TNKS-1 [2], half-maximal inhibition (IC50) required 21.9 nM.

For `CN(C)c1ccc2c(c1)oc(=O)c1ccccc12` [NSC102371], the “% of Inhibition at 10 μM / TNKS-1 ^c” value at TNKS-1 [1] was determined as 88.54.

As to `COc1ccc(-c2cc3ccccc3c(=O)o2)cc1` [NSC123012], on TNKS-1 [1], the “% of Inhibition at 10 μM / TNKS-1 ^c” value came out at 50.92. In the case of `Cc1c(C)c2ccc(N(C)C)cc2[nH]c1=O` [NSC295092], on TNKS-1 [2], it took 66.1 nM to reach half-maximal inhibition (IC50).
